The results in this text go back to ChEMBL document CHEMBL5584243, “Discovery of JNJ-74856665: A Novel Isoquinolinone DHODH Inhibitor for the Treatment of AML” (J Med Chem, 2024).

≈ marks a conversion by molar mass, not a printed value.

What is called half-life is the time needed for the level to fall by half in the phase considered. As a reminder, the clearance is a measure of how efficiently the substance is removed, as volume per time. A word on the IC50: it is the concentration needed to halve the response being measured. What is called thermodynamic solubility is the concentration in solution at equilibrium with solid.

A short description of data set [1]: Half life in cynomolgus monkey at 1 mg/kg,iv. The class given is ADME, organism-based, Macaca fascicularis. Particulars: in vivo.
A short description of data set [2]: Volume of distribution at steady state in cynomolgus monkey at 1 mg/kg,iv. The class given is ADME, organism-based, Macaca fascicularis. As to conditions: in vivo, read-out: Vdss.
Data set [3] can be described thus: Metabolic stability in human liver microsomes assessed as half life incubated upto 60 mins in presence of NADPH by LC-MS/MS analysis. The class given is ADME, Microsome.
Data set [4] deals with T1, PXR (NR1I2) (Homo sapiens, UniProt O75469).
T1 sequence (O75469 whole entry): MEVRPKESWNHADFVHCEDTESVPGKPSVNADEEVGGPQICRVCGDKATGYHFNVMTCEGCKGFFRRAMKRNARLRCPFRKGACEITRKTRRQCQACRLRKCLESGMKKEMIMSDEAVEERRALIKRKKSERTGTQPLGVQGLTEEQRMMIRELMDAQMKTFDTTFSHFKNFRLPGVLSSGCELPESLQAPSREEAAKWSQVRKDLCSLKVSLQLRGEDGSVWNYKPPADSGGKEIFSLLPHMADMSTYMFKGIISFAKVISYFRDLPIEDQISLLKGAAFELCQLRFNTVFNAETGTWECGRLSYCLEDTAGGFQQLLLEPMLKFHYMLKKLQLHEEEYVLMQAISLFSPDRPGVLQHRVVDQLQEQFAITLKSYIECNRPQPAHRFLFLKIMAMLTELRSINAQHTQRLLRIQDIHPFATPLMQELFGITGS
The data set is described as follows: Activation of PXR (unknown origin) assessed as fold change at 10 uM relative to control. Type of data set: ADME. As to conditions: read-out: FC.

Data set [5] concerns the target CYP3A4 (Homo sapiens, UniProt P08684). The data set is described as follows: Induction of CYP3A4 in cryopreserved human hepatocytes using midazolam as substrate assessed as fold change at 1 uM relative to control. The class given is ADME, cell-based, Hepatocyte. As to conditions: probe midazolam, read-out: FC.
The nature of data set [6]: Clearance in cynomolgus monkey at 1 mg/kg,iv. The class given is ADME, organism-based, Macaca fascicularis. Particulars: in vivo.
In data set [7] the target is T1, PXR (NR1I2). The data set is described as follows: Activation of PXR (unknown origin) assessed as fold change at 1 uM relative to control. The class given is ADME. As to conditions: read-out: FC.
For data set [8], the target named is Kappa-type opioid receptor (Homo sapiens, UniProt P41145). Description: Inhibition of KOP (unknown origin).
Data set [9] in a line: Volume of distribution at steady state in C57BL mouse at 2 mg/kg,iv measured upto 24 hrs by LC-MS/MS analysis. Type of data set: ADME, organism-based. As to conditions: in vivo, read-out: Vdss.
Data set [10] can be described thus: Equilibrium solubility of compound in FaSSIF at pH 6.5 using crystalline form incubated for 2 to 5 days by HPLC analysis. The class given is ADME. As to conditions: time 2-5 day.
Data set [11] in a line: Inhibition of Calcium ion channel (unknown origin). Also on record: species or system Homo sapiens.
Data set [12] concerns MOLM-13. Description: Antiproliferative activity against human MOLM-13 cells assessed as inhibition of cell growth incubated for 72 hrs by CellTiter-Glo assay. The class given is functional, cell-based. Particulars: MOLM-13, 72 h. For orientation: ATP-based viability assays read luminescence as a measure of living cells.
Data set [13] concerns the target Voltage-gated inwardly rectifying potassium channel KCNH2 (Homo sapiens, UniProt Q12809). Description: Inhibition of hERG. Type of data set: toxicity. On the technique in general: hERG is a cardiac potassium channel; its block is linked to QT prolongation.
The nature of data set [14]: Equilibrium solubility of compound in SGF at pH 1 using crystalline form incubated for 2 to 5 days by HPLC analysis. Particulars: time 2-5 day. The class given is ADME.

Sequence of Kappa-type opioid receptor (P41145 whole entry): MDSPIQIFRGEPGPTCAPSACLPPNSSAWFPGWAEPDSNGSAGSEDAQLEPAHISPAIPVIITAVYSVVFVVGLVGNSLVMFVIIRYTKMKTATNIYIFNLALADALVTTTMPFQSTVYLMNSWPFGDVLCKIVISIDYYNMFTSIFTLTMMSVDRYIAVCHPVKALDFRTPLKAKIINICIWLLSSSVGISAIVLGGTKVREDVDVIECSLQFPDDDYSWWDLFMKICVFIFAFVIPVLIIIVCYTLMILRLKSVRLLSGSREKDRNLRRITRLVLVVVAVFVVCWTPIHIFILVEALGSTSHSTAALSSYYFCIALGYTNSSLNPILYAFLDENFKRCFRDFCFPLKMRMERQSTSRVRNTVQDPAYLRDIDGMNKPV
Sequence of Voltage-gated inwardly rectifying potassium channel KCNH2 (Q12809 whole entry): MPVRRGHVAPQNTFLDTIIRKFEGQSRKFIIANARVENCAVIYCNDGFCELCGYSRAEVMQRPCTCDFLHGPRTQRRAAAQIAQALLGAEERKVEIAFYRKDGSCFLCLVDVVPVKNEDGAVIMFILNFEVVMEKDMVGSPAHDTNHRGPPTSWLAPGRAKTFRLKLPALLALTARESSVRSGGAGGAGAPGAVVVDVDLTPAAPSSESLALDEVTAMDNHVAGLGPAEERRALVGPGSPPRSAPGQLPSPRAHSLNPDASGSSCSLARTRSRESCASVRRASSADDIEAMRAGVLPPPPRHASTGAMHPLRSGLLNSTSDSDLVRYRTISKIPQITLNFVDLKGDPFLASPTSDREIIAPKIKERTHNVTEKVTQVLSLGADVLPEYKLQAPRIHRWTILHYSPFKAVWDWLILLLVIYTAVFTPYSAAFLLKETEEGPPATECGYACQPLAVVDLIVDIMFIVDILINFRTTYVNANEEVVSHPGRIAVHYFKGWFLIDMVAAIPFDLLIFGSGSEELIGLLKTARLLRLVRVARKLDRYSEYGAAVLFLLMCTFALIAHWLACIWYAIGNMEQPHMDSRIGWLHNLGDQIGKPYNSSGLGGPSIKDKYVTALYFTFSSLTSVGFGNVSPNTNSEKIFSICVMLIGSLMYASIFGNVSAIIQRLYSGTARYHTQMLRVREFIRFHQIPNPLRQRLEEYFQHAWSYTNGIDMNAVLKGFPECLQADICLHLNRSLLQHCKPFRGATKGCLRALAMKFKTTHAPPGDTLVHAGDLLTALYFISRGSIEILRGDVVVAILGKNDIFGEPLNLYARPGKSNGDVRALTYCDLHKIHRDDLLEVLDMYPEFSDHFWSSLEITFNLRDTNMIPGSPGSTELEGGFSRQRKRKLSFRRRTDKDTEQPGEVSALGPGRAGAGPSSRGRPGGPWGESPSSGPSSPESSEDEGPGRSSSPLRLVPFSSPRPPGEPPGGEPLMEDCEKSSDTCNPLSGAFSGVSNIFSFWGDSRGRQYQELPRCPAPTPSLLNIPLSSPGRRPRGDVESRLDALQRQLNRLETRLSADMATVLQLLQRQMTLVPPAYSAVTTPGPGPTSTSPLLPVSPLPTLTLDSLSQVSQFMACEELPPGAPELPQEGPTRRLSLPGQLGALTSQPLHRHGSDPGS
Sequence of CYP3A4 (P08684 whole entry): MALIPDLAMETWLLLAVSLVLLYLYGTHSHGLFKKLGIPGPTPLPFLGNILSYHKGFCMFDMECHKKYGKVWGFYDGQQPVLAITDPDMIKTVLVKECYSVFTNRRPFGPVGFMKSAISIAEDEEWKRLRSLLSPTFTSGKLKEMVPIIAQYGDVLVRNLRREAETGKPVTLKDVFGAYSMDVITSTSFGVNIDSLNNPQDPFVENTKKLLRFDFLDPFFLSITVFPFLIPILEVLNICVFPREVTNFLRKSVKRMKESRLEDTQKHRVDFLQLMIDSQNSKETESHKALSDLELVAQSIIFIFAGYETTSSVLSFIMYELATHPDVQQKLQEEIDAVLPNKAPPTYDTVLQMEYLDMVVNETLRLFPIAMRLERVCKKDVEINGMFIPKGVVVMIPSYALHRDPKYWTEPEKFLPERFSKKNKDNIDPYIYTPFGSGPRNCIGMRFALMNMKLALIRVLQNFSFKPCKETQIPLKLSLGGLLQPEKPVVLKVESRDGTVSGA

Turning to `CCn1c(CO)nn(-c2cc3c(C(C)C)cn(-c4ccccc4C)c(=O)c3cc2F)c1=O`, the half-life was 6.4 h in data set [1] and greater than 3 h in data set [3]. In addition, the Vd in data set [2] stood at 1.2 L/kg; in [9] it was 1.6 L/kg. Moreover, in data set [4], the fold induction at 10 µM was 7.4. In addition, the fold induction at 1 µM in data set [5] is less than 2; in data set [7] it was 3.2. Also, in data set [6], the clearance was found to be 2.4 mL/min/kg. The IC50 in [8] is 14 µM; in data set [11], greater than 10 µM; in [12], 0.00019 µM; in data set [13], greater than 10 µM. Also, the thermodynamic solubility in data set [10] was 67 µg/mL (≈ 153 µM); in data set [14] it was 25 µg/mL (≈ 57.3 µM).
